Legend:
CD11+ BMDC's = experiment: Phagocytosis of irradiated MEFs treated with autophagy inhibitors by BMDC's (qPCR IFNβ1, Cxcl10); format: cell-based, mouse; settings: BafA1 50 nM; 3-MA 2.5 mM
WT macrophages (WTØ) = experiment: Phagocytosis of irradiated cells by WT macrophages (WTØ), Cxcl10 qPCR, with CCL5, CCL5 antibody or CCR inhibitors; format: cell-based, mouse; settings: exogenously added recombinant CCL5 100 ng/mL 2 h, irradiated B16 cells 50 Gy
Experimental: (B) B16-WT or B16-SKO cells were irradiated using X-rays at 50 Gy for 3 days. 50 μL of the conditioned media from the cells was added to WTØ followed by adding the irradiated B16-WT and B16-SKO cells with the treated APC's for phagocytosis analysis. qPCR analysis was performed for Cxcl10 expression. (C) qPCR analysis of Cxcl10 in WTØ following the phagocytosis of irradiated MEF-WT cells in the presence of CCL5 antibody or IgG control (1 μg) at 100 ng/mL for 2 h prior to the phagocytosis. (D) MEF-WT cells were treated with a cocktail of 100 nM CCR inhibitors (Bx471, SB297006, AZD2098 and Maraviroc). The MEF-WT cells treated with the inhibitors (CCRi) were fed to WTØ for 6 h and Cxcl10 expression examined. (E) MEF WT, SKO or CCL5 KO were transfected with 3 μg/mL ISD for 6 h followed by measuring Ifnβ1, Cxcl10 or Ccl5 expression by qPCR analysis. (F) MEF WT, SKO or CCL5 KO were transfected with 3 μg/mL ISD for 6 h and then examined for STING activity by immunoblotting analysis. […] Immunofluorescence to detect STING translocation was monitored by confocal microscope, according to an embodiment of the present invention; […]
Macrophages were washed with 0.02% EDTA/PBS twice followed by incubation with 0.02% EDTA/PBS at 37C incubator for 10 mins. […] Percentage of phagocytosed cells were assessed by flow cytometry using a LSRII instrument (Becton Dickinson, USA).

DNase II = experiment: Nuclease protection assay of Ccl5-DNA complex; format: biochemical; settings: 1 unit DNase II, 37° C., 20 mins
ISD (dsDNA) = experiment: Binding of CCL5 to DNA (Picogreen, EMSA); settings: ISD 10 μg/mL
Description: SIEVES were isolated from irradiated (X-ray at 50 Gy for 3 days) WT, SKO, or CCL5 MEFs as well as B16-WT, B16-SKO or B16-CCL5KO cells by centrifugation. (A) Immunoblot analysis of centrifuged fractions using antibodies to STING, CD81, LC3, and Lamin A/C. (B) Size distribution evaluation of endosomal vesicles isolated from B16-WT. B16-SKO, and B16-CCL5 KO cells following irradiation with X-rays at 50 Gy. (C) Evaluation of number of endosomal vesicles in (B). (D) Immunoblotting analysis of endosomal/exosomal markers in endosomal vesicles in (B). (E) cGAMP ELISA analysis of WT DC. SKO DC, and CKO BMDC's treated with 30 μg of SIEVE's isolated from MEF WT, MEF SKO, MEF CKO or MEF CCL5 KO. (F) qPCR analysis of Cxcl10 in WT DC treated with SIEVE's from (E). […] (G) Tumor volumes were measured every other day for 2 weeks. […]
(B) B16-WT. […] DNA was purified with phenol-chloroform and CCL5 bound ISD was analyzed by qPCR analysis. (C) DNA in SIEVE's isolated from MEF-WT, SKO and CCL5 KO with or without X-ray at 50 Gy were measured by Nanodrop, Picogreen staining and visualized by agarose gel electrophoresis and dot blot analysis, according to an embodiment of the present invention; and
ISD90 was premixed with CCL5 and negative control molecules at different concentration in 100 μL and analyzed by a fluorimeter after staining with Picogreen. […]

association of Ccl5 with DNA (ISD (dsDNA))	Molecule	immunogenicity of irradiated MEF cells (ability to activate APC's) (CD11+ BMDC's)	rescue of immunogenicity of Ccl5 KO or STING KO cells (WT macrophages (WTØ))	protection against DNA degradation by DNaseII (DNase II)
–	CO/C1=C\C(C)=C\[C@@H](C)[C@@H](O)[C@@H](C)C/C(C)=C/C=C/[C@H](OC)[C@@H]([C@@H](C)[C@@H](O)[C@H](C)[C@@]2(O)C[C@@H](O)[C@H](C)[C@@H](C(C)C)O2)OC1=O [BafA1, bafilomycin A1]	suppressed the immunogenicity	–	–
–	Cn1cnc(N)c2ncnc1-2 [3-MA, 3-Methyladenine]	suppressed the immunogenicity	–	–
associated with	Ccl5: recombinant CCL5 protein, exogenously added chemokine	–	did not appear to significantly rescue the immunogenicity	conferred protection against DNA degradation
